The test addresses T1, Met receptor (EGFR/Met chimeric cells, EMR) (Homo sapiens, UniProt P08581).
T1 construct: expressed in transfected cells; the other entry of the earlier key: EGFR (P00533, Epidermal growth factor receptor)
The experiment in a line: Met Autophosphorylation Assay. It is filed as biochemical. An outline of the steps: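 Transiently transfected EGFR/Met chimeric (EMR) cells were lysed in HNTG with 1 mM PMSF. Met was captured on plates coated with goat anti-rabbit IgG, then rabbit anti-Met (C-28), using 90 μg lysate/100 μl for 60 min at room temperature. Phosphotyrosine was read by ELISA.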
T1 sequence (P08581 with tags, fused parts or gaps): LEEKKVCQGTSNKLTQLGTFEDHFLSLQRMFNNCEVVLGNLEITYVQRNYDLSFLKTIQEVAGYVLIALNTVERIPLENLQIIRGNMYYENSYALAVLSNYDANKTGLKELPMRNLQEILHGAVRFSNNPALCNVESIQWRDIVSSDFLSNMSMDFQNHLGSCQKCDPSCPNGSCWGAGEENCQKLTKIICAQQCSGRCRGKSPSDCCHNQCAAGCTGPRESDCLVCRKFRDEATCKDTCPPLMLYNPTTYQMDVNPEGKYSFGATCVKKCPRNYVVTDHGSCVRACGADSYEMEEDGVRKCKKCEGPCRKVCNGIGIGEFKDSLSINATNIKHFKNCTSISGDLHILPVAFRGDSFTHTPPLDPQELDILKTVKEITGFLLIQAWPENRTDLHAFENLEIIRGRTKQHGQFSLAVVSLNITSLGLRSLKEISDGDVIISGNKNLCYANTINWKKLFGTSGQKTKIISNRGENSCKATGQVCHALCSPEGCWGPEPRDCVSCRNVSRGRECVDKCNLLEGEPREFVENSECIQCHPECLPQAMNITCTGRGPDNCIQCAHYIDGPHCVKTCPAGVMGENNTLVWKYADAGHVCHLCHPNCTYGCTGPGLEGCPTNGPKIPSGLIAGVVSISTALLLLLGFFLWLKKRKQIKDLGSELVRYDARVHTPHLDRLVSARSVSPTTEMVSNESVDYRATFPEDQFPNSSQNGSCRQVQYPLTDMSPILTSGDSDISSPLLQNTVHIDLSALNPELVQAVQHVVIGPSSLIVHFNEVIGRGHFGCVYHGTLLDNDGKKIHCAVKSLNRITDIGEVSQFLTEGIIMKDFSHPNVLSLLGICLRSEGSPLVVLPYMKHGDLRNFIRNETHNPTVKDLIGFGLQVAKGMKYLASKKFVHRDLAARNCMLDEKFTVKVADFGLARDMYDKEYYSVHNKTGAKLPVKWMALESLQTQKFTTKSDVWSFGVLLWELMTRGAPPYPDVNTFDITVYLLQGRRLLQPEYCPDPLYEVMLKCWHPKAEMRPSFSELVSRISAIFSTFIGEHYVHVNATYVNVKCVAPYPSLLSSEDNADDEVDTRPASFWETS
On to `CCN(CC)c1ccc(C=C2C(=O)Nc3c(Br)cc(Br)cc32)c(O)c1` [10734/A05], for which the “Met Kinase % Inhibition (P.130)” value is on record as 69.9%.

In the case of `O=C1Nc2ccc(CCCl)cc2C1=Cc1ccc([N+](=O)[O-])cc1` [10734/G06], the “Met Kinase % Inhibition (P.130)” value came to 43.1%.

Turning to `Cc1c(Br)ccc2c1C(=Cc1cc(Cl)cc(Cl)c1O)C(=O)N2` [10734/C03], the “Met Kinase % Inhibition (P.130)” value was determined as 88.2%.

In the case of `O=C1Nc2ccc(S(=O)(=O)N3CCOCC3)cc2C1=Cc1cc(Cl)cc(Cl)c1O` [10734/F03], the “Met Kinase % Inhibition (P.130)” value was found to be 86.8%.

As for `O=C1Nc2c(Br)cc(Br)cc2C1=Cc1ccc(Br)s1` [10734/A11], the “Met Kinase % Inhibition (P.130)” value came to 51.9%.

In the case of `CCN(CC)c1ccc(C=C2C(=O)Nc3ccc(S(=O)(=O)NC)cc32)c(O)c1` [10734/D05], the “Met Kinase % Inhibition (P.130)” value was determined as 55.0%.

`O=C1Nc2ccc(CCCl)cc2C1=Cc1cc(Cl)ccc1O` [10734/G04]: the “Met Kinase % Inhibition (P.130)” value was 72.1%.

Take `CCOc1cccc(C=C2C(=O)Nc3ccc(S(=O)(=O)N4CCOCC4)cc32)c1O` [10734/F02]: the “Met Kinase % Inhibition (P.130)” value was determined as 55.0%.

As to `CNS(=O)(=O)c1ccc2c(c1)C(=Cc1cc(Cl)cc(Cl)c1O)C(=O)N2` [10734/D03], the “Met Kinase % Inhibition (P.130)” value was 78.6%.

Regarding `CCOc1cccc(C=C2C(=O)Nc3ccc(S(=O)(=O)NC)cc32)c1O` [10734/D02], the “Met Kinase % Inhibition (P.130)” value came out at 46.0%.

Take `O=C1Nc2ccc(S(=O)(=O)N3CCOCC3)cc2C1=Cc1ccc(O)c(Br)c1` [10734/F09]: the “Met Kinase % Inhibition (P.130)” value is reported as 93.9%.

For `O=C1Nc2ccc(S(=O)(=O)N3CCOCC3)cc2C1=Cc1cc(Br)cc(Br)c1O` [10734/F07], the “Met Kinase % Inhibition (P.130)” value is 95.7%.

`Cc1c(Br)ccc2c1C(=Cc1cc(Br)cc(Br)c1O)C(=O)N2` [10734/C07]: the “Met Kinase % Inhibition (P.130)” value is 96.8%.

For `CCOc1cccc(C=C2C(=O)Nc3c(Br)cc(Br)c(C)c32)c1O` [10734/H02], the “Met Kinase % Inhibition (P.130)” value turned out to be 48.3%.

For the compound `O=C1Nc2c(Br)cc(Br)cc2C1=Cc1cc(Cl)cc(Cl)c1O` [10734/A03], the “Met Kinase % Inhibition (P.130)” value stood at 87.8%.

Regarding `CNS(=O)(=O)c1ccc2c(c1)C(=Cc1cc(Br)cc(Br)c1O)C(=O)N2` [10734/D07], the “Met Kinase % Inhibition (P.130)” value is recorded as 92.0%.

For the compound `O=C1Nc2ccc(S(=O)(=O)N3CCOCC3)cc2C1=Cc1ccc([N+](=O)[O-])cc1` [10734/F06], the “Met Kinase % Inhibition (P.130)” value is listed as 64.2%.

Regarding `CCOc1cccc(C=C2C(=O)Nc3ccc(CCCl)cc32)c1O` [10734/G02], the “Met Kinase % Inhibition (P.130)” value was 63.6%.

For `O=C1Nc2ccc(S(=O)(=O)N3CCOCC3)cc2C1=Cc1ccc(Br)s1` [10734/F11], the “Met Kinase % Inhibition (P.130)” value was determined as 47.3%.

With `Cc1c(Br)cc(Br)c2c1C(=Cc1ccc(Cl)c([N+](=O)[O-])c1)C(=O)N2` [10718/H08], the “Met Kinase % Inhibition (P.130)” value was 14.4%.

For the compound `O=C1Nc2ccc(I)cc2C1=Cc1cc(Cl)cc(Cl)c1O` [10734/B03], the “Met Kinase % Inhibition (P.130)” value worked out at 90.1%.

Take `CC(C)(C)c1ccc(C=C2C(=O)Nc3ccc(S(=O)(=O)Nc4ccc(C(F)(F)F)cc4)cc32)cc1` [10734/E10]: the “Met Kinase % Inhibition (P.130)” value was determined as 27.9%.

On to `O=C1Nc2ccc(I)cc2C1=Cc1cc(Cl)ccc1O` [10734/B04], for which the “Met Kinase % Inhibition (P.130)” value was found to be 88.4%.

Turning to `CCN(CC)c1ccc(C=C2C(=O)Nc3ccc(Br)c(C)c32)c(O)c1` [10734/C05], the “Met Kinase % Inhibition (P.130)” value came to 52.7%.

As for `CCOC(=O)c1cc(C=C2C(=O)Nc3c(Br)cc(Br)c(C)c32)oc1C` [10718/H06], the “Met Kinase % Inhibition (P.130)” value is on record as 32.2%.

Consider `O=C1Nc2c(Br)cc(Br)cc2C1=Cc1cc(Br)cc(Br)c1O` [10734/A07], for which the “Met Kinase % Inhibition (P.130)” value is listed as 89.3%.

For `O=C1Nc2c(Br)cc(Br)cc2C1=Cc1ccc([N+](=O)[O-])cc1` [10734/A06], the “Met Kinase % Inhibition (P.130)” value amounted to 46.9%.

As for `CCOC(=O)c1c(C)[nH]c(C=C2C(=O)Nc3c(Br)cc(Br)c(C)c32)c1C` [10718/H02], the “Met Kinase % Inhibition (P.130)” value came out at 31.5%.

As for `Cc1c(Br)ccc2c1C(=Cc1ccc(Br)s1)C(=O)N2` [10734/C11], the “Met Kinase % Inhibition (P.130)” value was 23.9%.

Consider `O=C1Nc2c(Br)cc(Br)cc2C1=Cc1cccc(F)c1O` [10734/A08], for which the “Met Kinase % Inhibition (P.130)” value is recorded as 71.5%.

For the compound `O=C1Nc2ccc(S(=O)(=O)Nc3ccc(C(F)(F)F)cc3)cc2C1=Cc1ccc([N+](=O)[O-])cc1` [10734/E06], the “Met Kinase % Inhibition (P.130)” value is given as 50.6%.

Regarding `CCOc1cccc(C=C2C(=O)Nc3c(Br)cc(Br)cc32)c1O` [10734/A02], the “Met Kinase % Inhibition (P.130)” value amounted to 51.1%.

Take `CCN(CC)c1ccc(C=C2C(=O)Nc3ccc(S(=O)(=O)Nc4ccc(C(F)(F)F)cc4)cc32)c(O)c1` [10734/E05]: the “Met Kinase % Inhibition (P.130)” value worked out at 63.6%.

For the compound `COC(=O)c1[nH]c(C)c(C=C2C(=O)Nc3c(Br)cc(Br)c(C)c32)c1C(=O)OC` [10718/H07], the “Met Kinase % Inhibition (P.130)” value was 52.7%.

As for `O=C1Nc2ccc(S(=O)(=O)Nc3ccc(C(F)(F)F)cc3)cc2C1=Cc1cc(Cl)cc(Cl)c1O` [10734/E03], the “Met Kinase % Inhibition (P.130)” value was found to be 99.3%.

On to `CC(C)(C)c1ccc(C=C2C(=O)Nc3ccc(CCCl)cc32)cc1` [10734/G10], for which the “Met Kinase % Inhibition (P.130)” value was 19.3%.

For the compound `Cc1c(Br)cc(Br)c2c1C(=Cc1cc(Cl)ccc1O)C(=O)N2` [10734/H04], the “Met Kinase % Inhibition (P.130)” value was determined as 64.2%.

As to `CCOc1cccc(C=C2C(=O)Nc3ccc(I)cc32)c1O` [10734/B02], the “Met Kinase % Inhibition (P.130)” value turned out to be 61.9%.

In the case of `O=C1Nc2ccc(S(=O)(=O)N3CCOCC3)cc2C1=Cc1cc(Cl)ccc1O` [10734/F04], the “Met Kinase % Inhibition (P.130)” value was found to be 76.5%.

Turning to `O=C1Nc2ccc(I)cc2C1=Cc1ccc([N+](=O)[O-])cc1` [10734/B06], the “Met Kinase % Inhibition (P.130)” value amounted to 91.2%.

Turning to `CC(C)(C)c1ccc(C=C2C(=O)Nc3ccc(I)cc32)cc1` [10734/B10], the “Met Kinase % Inhibition (P.130)” value amounted to 82.6%.

With `CNS(=O)(=O)c1ccc2c(c1)C(=Cc1ccc(O)c(Br)c1)C(=O)N2` [10734/D09], the “Met Kinase % Inhibition (P.130)” value was 88.0%.

For `CNS(=O)(=O)c1ccc2c(c1)C(=Cc1ccc([N+](=O)[O-])cc1)C(=O)N2` [10734/D06], the “Met Kinase % Inhibition (P.130)” value worked out at 30.6%.

Turning to `CCOc1cccc(C=C2C(=O)Nc3ccc(S(=O)(=O)Nc4ccc(C(F)(F)F)cc4)cc32)c1O` [10734/E02], the “Met Kinase % Inhibition (P.130)” value was 66.9%.

Regarding `Cc1c(Br)cc(Br)c2c1C(=Cc1cc(Cl)cc(Cl)c1O)C(=O)N2` [10734/H03], the “Met Kinase % Inhibition (P.130)” value came out at 90.3%.

As for `O=C1Nc2ccc(I)cc2C1=Cc1cccc(F)c1O` [10734/B08], the “Met Kinase % Inhibition (P.130)” value is listed as 56.1%.

For the compound `O=C1Nc2ccc(I)cc2C1=Cc1ccc(Br)s1` [10734/B11], the “Met Kinase % Inhibition (P.130)” value amounted to 83.6%.

`CNS(=O)(=O)c1ccc2c(c1)C(=Cc1ccc(Br)s1)C(=O)N2` [10734/D11]: the “Met Kinase % Inhibition (P.130)” value worked out at 33.9%.

As for `O=C1Nc2ccc(S(=O)(=O)Nc3ccc(C(F)(F)F)cc3)cc2C1=Cc1ccc(O)c(Br)c1` [10734/E09], the “Met Kinase % Inhibition (P.130)” value turned out to be 96.2%.

As to `Cc1c(Br)ccc2c1C(=Cc1cc(Cl)ccc1O)C(=O)N2` [10734/C04], the “Met Kinase % Inhibition (P.130)” value was 90.7%.

Consider `CCN(CC)c1ccc(C=C2C(=O)Nc3ccc(I)cc32)c(O)c1` [10734/B05], for which the “Met Kinase % Inhibition (P.130)” value turned out to be 67.8%.

In the case of `CNS(=O)(=O)c1ccc2c(c1)C(=Cc1cc(Cl)ccc1O)C(=O)N2` [10734/D04], the “Met Kinase % Inhibition (P.130)” value was found to be 46.9%.

Consider `CCN(CC)c1ccc(C=C2C(=O)Nc3ccc(CCCl)cc32)c(O)c1` [10734/G05], for which the “Met Kinase % Inhibition (P.130)” value was found to be 57.7%.

Regarding `Cc1c(Br)ccc2c1C(=Cc1ccc(C(C)(C)C)cc1)C(=O)N2` [10734/C10], the “Met Kinase % Inhibition (P.130)” value is given as 11.6%.

`O=C1Nc2ccc(CCCl)cc2C1=Cc1ccc(Br)s1` [10734/G11]: the “Met Kinase % Inhibition (P.130)” value came out at 20.2%.

In the case of `Cc1c(Br)ccc2c1C(=Cc1cccc(F)c1O)C(=O)N2` [10734/C08], the “Met Kinase % Inhibition (P.130)” value is 93.2%.

As to `O=C1Nc2ccc(S(=O)(=O)Nc3ccc(C(F)(F)F)cc3)cc2C1=Cc1cccc(F)c1O` [10734/E08], the “Met Kinase % Inhibition (P.130)” value turned out to be 89.1%.

As to `CCOC(=O)CCc1c(C(=O)OCC)[nH]c(C=C2C(=O)Nc3c(Br)cc(Br)c(C)c32)c1CC(=O)OCC` [10718/H05], the “Met Kinase % Inhibition (P.130)” value was found to be 13.5%.

Take `O=C1Nc2c(Br)cc(Br)cc2C1=Cc1cc(Cl)ccc1O` [10734/A04]: the “Met Kinase % Inhibition (P.130)” value amounted to 68.0%.

`CNS(=O)(=O)c1ccc2c(c1)C(=Cc1ccc(C(C)(C)C)cc1)C(=O)N2` [10734/D10]: the “Met Kinase % Inhibition (P.130)” value worked out at 20.6%.

`CCN(CC)c1ccc(C=C2C(=O)Nc3ccc(S(=O)(=O)N4CCOCC4)cc32)c(O)c1` [10734/F05]: the “Met Kinase % Inhibition (P.130)” value was 73.8%.

Turning to `O=C1Nc2c(Br)cc(Br)cc2C1=Cc1ccc(O)c(Br)c1` [10734/A09], the “Met Kinase % Inhibition (P.130)” value stood at 88.4%.

On to `O=C1Nc2ccc(CCCl)cc2C1=Cc1cccc(F)c1O` [10734/G08], for which the “Met Kinase % Inhibition (P.130)” value is 82.2%.

On to `Cc1c(Br)ccc2c1C(=Cc1ccc([N+](=O)[O-])cc1)C(=O)N2` [10734/C06], for which the “Met Kinase % Inhibition (P.130)” value stood at 48.3%.

Turning to `O=C1Nc2ccc(I)cc2C1=Cc1ccc(O)c(Br)c1` [10734/B09], the “Met Kinase % Inhibition (P.130)” value came out at 94.3%.

For the compound `Cc1c(Br)ccc2c1C(=Cc1ccc(O)c(Br)c1)C(=O)N2` [10734/C09], the “Met Kinase % Inhibition (P.130)” value turned out to be 88.6%.

Turning to `O=C1Nc2ccc(S(=O)(=O)Nc3ccc(C(F)(F)F)cc3)cc2C1=Cc1cc(Br)cc(Br)c1O` [10734/E07], the “Met Kinase % Inhibition (P.130)” value amounted to 100.8%.

On to `O=C1Nc2ccc(CCCl)cc2C1=Cc1ccc(O)c(Br)c1` [10734/G09], for which the “Met Kinase % Inhibition (P.130)” value is on record as 84.7%.

As to `O=C1Nc2ccc(CCCl)cc2C1=Cc1cc(Br)cc(Br)c1O` [10734/G07], the “Met Kinase % Inhibition (P.130)” value came to 96.6%.

In the case of `CC(C)(C)c1ccc(C=C2C(=O)Nc3ccc(S(=O)(=O)N4CCOCC4)cc32)cc1` [10734/F10], the “Met Kinase % Inhibition (P.130)” value is listed as 44.8%.

For the origin of these results see patent US20020026053A1, “Novel 3-(substituted) -2- indolinones compounds and use thereof as inhibitors of protein kinase activity” (priority 1997, published 2002).
